Experimental findings from ChEMBL document CHEMBL5113506, “Discovery of novel human lactate dehydrogenase inhibitors: Structure-based virtual screening studies and biological assessment” (Eur J Med Chem, 2022) are described below.

The structures appear in SMILES notation. Active and inactive are the calls of the source. The rule behind the calls is not given here.

The subject of assay [1] is Medulloblastoma cell. Briefly: Antiproliferation activity against human Med1 assessed as reduction in cell viability at 1 mM after 24 hrs by Trypan blue exclusion assay. It is filed as functional, cell-based.
Assay [2] in a line: Antiproliferation activity against human Med1 assessed as reduction in cell viability after 24 hrs by Trypan blue exclusion assay. It is filed as functional, cell-based. As to conditions: Medulloblastoma cell.
The test system of assay [3] is Medulloblastoma cell. Briefly: Antiproliferation activity against human Med1 assessed as reduction in cell viability at […] after 24 hrs by Trypan blue exclusion assay. It is filed as functional, cell-based.
The next assay concerns PANC-1. Briefly: Antiproliferation activity against human PANC-1 cells assessed as reduction in cell viability after 24 hrs by Trypan blue exclusion assay. In kind it is functional, cell-based.
The test system of assay [4] is HCT-116. Briefly: Induction of apoptosis in human HCT-116 cells assessed as increase in cleaved PARP protein expression level at 80 to 320 uM after 48 hrs by Western blot analysis. In kind it is functional, cell-based. As to conditions: dose 80-320 µM. On the technique in general: A western blot detects proteins with antibodies after separation by electrophoresis.

Assay [5] concerns the target T1, L-lactate dehydrogenase A chain (Homo sapiens, UniProt P00338). Briefly: Inhibition of LDHA in human Med1 cells assessed as reduction in lactate production by measuring ECAR using pyruvate as substrate incubated 6 hrs by seahorse extracellular flux analysis. It is filed as cell-based. Conditions: Medulloblastoma cell.
The test system of the next assay is A549. Briefly: Antiproliferation activity against human A549 cells assessed as reduction in cell viability after 24 hrs by Trypan blue exclusion assay. In kind it is functional, cell-based.
For assay [6], the target named is T1, L-lactate dehydrogenase A chain. Briefly: Inhibition of LDHA in human Med1 cells using pyruvate as substrate incubated 10 mins by spectrophotometric analysis. It is filed as cell-based, Medulloblastoma cell.
Assay [7] relates to HCT-116. Briefly: Antiproliferation activity against human HCT-116 cells assessed as reduction in cell viability after 24 hrs in presence of rotenone by Trypan blue exclusion assay. It is filed as functional, cell-based.
The test system of assay [8] is Medulloblastoma cell. Briefly: Antiproliferation activity against human Med1 assessed as reduction in cell viability at 100 uM after 24 hrs by Trypan blue exclusion assay. In kind it is functional, cell-based.
Assay [9] concerns HCT-116. Briefly: Induction of apoptosis in human HCT-116 cells assessed as increase in cleaved PARP protein expression level after 48 hrs in presence of rotenone by Western blot analysis. In kind it is functional, cell-based.
For assay [10], the system named is HCT-116. Briefly: Antiproliferation activity against human HCT-116 cells assessed as reduction in cell viability after 24 hrs by Trypan blue exclusion assay. In kind it is functional, cell-based.
Assay [11] deals with HCT-116. Briefly: Induction of autophagy in human HCT-116 cells assessed as increase in LC3B-I lipidation protein expression level at 80 to 320 uM after 48 hrs by Western blot analysis. In kind it is functional, cell-based. As to conditions: dose 80-320 µM.
Assay [12] concerns HCT-116. Briefly: Induction of […] in human HCT-116 cells assessed as increase in LC3B-I lipidation protein expression level after 48 hrs in presence of rotenone by Western blot analysis. It is filed as functional, cell-based.
In a further assay the test system is SW-620. Briefly: Antiproliferation activity against human SW-620 cells assessed as reduction in cell viability after 24 hrs by Trypan blue exclusion assay. It is filed as functional, cell-based.
The target in assay [13] is T1, L-lactate dehydrogenase A chain. Briefly: Inhibition of LDHA in human liver using pyruvate as substrate incubated for 3 mins by fluorescence assay. In kind it is tissue-based.
In assay [14] the target is L-lactate dehydrogenase B chain (Mus musculus, UniProt P16125). Briefly: Inhibition of mouse LDHB using sodium pyruvate as substrate.
L-lactate dehydrogenase B chain, sequence (P16125 whole entry): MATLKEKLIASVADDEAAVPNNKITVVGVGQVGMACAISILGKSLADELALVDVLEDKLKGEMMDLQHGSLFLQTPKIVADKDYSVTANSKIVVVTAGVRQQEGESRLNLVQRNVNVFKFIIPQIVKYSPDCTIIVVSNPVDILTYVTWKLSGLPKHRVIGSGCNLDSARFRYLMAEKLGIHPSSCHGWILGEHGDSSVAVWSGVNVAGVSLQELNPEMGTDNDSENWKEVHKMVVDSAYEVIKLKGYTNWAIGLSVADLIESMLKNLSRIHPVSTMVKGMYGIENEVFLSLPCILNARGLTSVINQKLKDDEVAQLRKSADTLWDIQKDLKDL

On to `CSc1sc(C(=O)O)cc1-c1nc(-c2ccc(C)cc2)cs1`, for which the result in the assay with Medulloblastoma cell [1] and with Medulloblastoma cell [3] was Active. Also, the half-inhibitory concentration (IC50) (as a rule, the concentration that inhibits the measured activity by half) in [2] was found to be 964 nM.
With `O=c1cc2c(nn1CC1CCN(C3=NS(=O)(=O)c4ccccc43)CC1)CCC2`, the outcome with Medulloblastoma cell [1], with PANC-1, in the assay with HCT-116 [4], in the assay on A549, in the assay on HCT-116 [7] and in the assay on Medulloblastoma cell [8] was Active. Also, the result in the assay on Medulloblastoma cell [3], with HCT-116 [9], with HCT-116 [10], in the assay with HCT-116 [11], in the assay on HCT-116 [12] and in the assay with SW-620 was Active. Moreover, the IC50 turned out to be 81.8 nM in [2] and 12 nM in assay [6]. The inhibition entry in assay [5] is “Active”.
With `Cc1cc(C(=O)N(CCc2cccs2)C2CCOCC2)no1`, the outcome with Medulloblastoma cell [1] and in the assay on Medulloblastoma cell [3] was Active. For the same compound, in assay [2], the IC50 is 1160 nM.
As for `Cc1ccc(-c2c(C)c(C(=O)O)nn2-c2ccc(Cl)c(Cl)c2)cc1C`, the outcome in the assay on Medulloblastoma cell [1] and in the assay on Medulloblastoma cell [3] was Active. In addition, in assay [2], the 50% inhibitory concentration (IC50) is 1140 nM.
Take `CSc1cccc(-n2c(=O)n(Cc3ccc(C(=O)O)cc3)c(=O)c3[nH]cnc32)c1`: in assay [2], the IC50 turned out to be 8310 nM. In addition, the result in the assay on Medulloblastoma cell [3] was Active.
Take `O=c1cc2c(=O)oc3cc(O)c(O)oc3c2c(O)c1O`: the affinity in [13] corresponds to a Ki of 5460 nM.
With `Cc1cc2c(C(C)C)c(O)c(O)c(C=O)c2c(O)c1-c1c(C)cc2c(C(C)C)c(O)c(O)c(C=O)c2c1O` [GOSSYPOL], affinity in assay [14] was put at a Ki of 1400 nM.
For the compound `Cn1nc(C2CCN(C(=O)NCc3ccccc3)CC2)n(-c2ccccc2)c1=O`, the result with Medulloblastoma cell [1] and in the assay on Medulloblastoma cell [3] was Active. In addition, the IC50 in assay [2] is 1510 nM.
On to `Cc1nn(-c2ncc(NC(=O)C3(c4ccccc4)CCOCC3)cn2)c(C)c1C`, for which the outcome with Medulloblastoma cell [1], in the assay on Medulloblastoma cell [8] and in the assay with Medulloblastoma cell [3] was Active. The IC50 in assay [2] was found to be 29.8 nM.
`NC(=O)C(=O)O` [SODIUM OXAMATE]: the IC50 in assay [2] was found to be 15900 nM.
Turning to `O=C(NCc1nn(C2CCCC2)c(=O)c2ccccc12)Nc1ccccc1F`, the result in the assay with Medulloblastoma cell [1] and in the assay with Medulloblastoma cell [3] was Active. The IC50 in assay [2] amounted to 8460 nM.
Turning to `O=C(O)c1nnn(-c2ccc(F)cc2F)c1-c1ccccc1`, the outcome in the assay on Medulloblastoma cell [1] and with Medulloblastoma cell [3] was Active. In addition, in [2], the half-inhibitory concentration (IC50) is 1300 nM.
